Results: US20030165486A1, “Compositions and methods for the induction of retinal detachments” (priority 1999, published 2003)
Where two headings read alike, the source gives them in different places.

What was measured:
[1] = system: eyes of rabbits
Protocol: Fifty-two (52) healthy rabbits of the New Zealand Cross variety (26 male, 26 female) weighing 1.5 kg to 2.5 kg were individually marked for identification and were housed individually in suspended cages. The animals received a commercially available pelleted rabbit feed on a daily basis, with tap water available ad libitum.
Two animals in each group (1 male, 1 female) were selected for pretreatment fundus photography and fluorescein angiography.
The fundus photography was performed by restraining the animals and visualizing the optic nerve, retinal arcades and fundus with a KOWA® RC-3 Fundus Camera loaded with Kodak Gold 200 ASA film.
The fluorescein angiography involved a 1.5-ml injection of 2% sterile fluorescein solution via the marginal ear vein. Approximately 30 seconds post-injection the fluorescein was visualized upon localization of the optic nerve, retinal vessels and fundus.
The following day, each animal was anesthetized by intravenous administration of a combination of 34 mg/kg of ketamine hydrochloride and 5-mg/kg xylazine. The eyelids were retracted using a lid speculum, and the eyes were disinfected with an iodine-povidone wash.
The experimental treatments administered to each animal group were as follows:
The day following the injections (Day 1) the 26 animals, which were subjected to the fundus photography and fluorescein angiography, were observed using the same methods as for the pre-dose examination.
Alternatively, one randomly selected rabbit was euthanized by pentobarbital injection but then fixed by intracardiac injection of the gluteraldehyde solution into the left ventricle to determine the effect of the fixation procedure on the histology findings within the enucleated eyes.
On Day 7, the 13 female rabbits that had been previously photographed and angiography performed were subjected to same observations following the methods previously described.
The remaining 26 animals were euthanized as described above 7 days after dosing. The eyes were fixed in the same manner as those, which had been fixed on day 2. […]

[2] = system: retina of rabbit eyes; assay type: in vivo; conditions: for Electro Retinography Results / Histological and Electron Microscopic Results / Retinal Detachment at 48 hours Post 2nd Injection / Retinal Reattachment at 3 weeks Post 2nd Injection: 50 μl of 75 I.U. hyaluronidase intravitreally, 3 days later 50 μl sterile PEG, n = 6; for Retinal Detachment at 48 hours Post 2nd Injection / Retinal Reattachment at 3 weeks Post 2nd Injection: fundus photos, β scans; for safety by indirect ophthalmoscopy, fundus photography, light and electron microscopy and electroretinography: intravitreal hyaluronidase followed by intravitreal PEG
Protocol: In this study, 12-pigmented rabbits were divided into 2 groups of 6 animals each. Group I consisted of six animals that were injected OD with PEG 300. […] As a control, these same animals received saline injections OS and thus served as a control group (Group Ia).
Group II consisted of six animals that were injected that were injected OD with PEG 400. […] As a control, these same animals received saline injections OS and thus served as a control group (Group IIa).
During this procedure a number of ophthalmic methodologies were utilized to monitor the effects and progress of the various experimental treatments. For example, indirect ophthalmoscopy was utilized by a retinal specialist to determine the effects of administering a retinal detaching dose of the compounds disclosed. […] Light microscopy and electron microscopy of eye samples was used to determine the effect of the treatments from a histological perspective. Ultrasonography techniques were used to objectively determine the presence of retinal detachment. Additionally, electroretinography was performed to determine changes due to treatment.

[3] = system: retina of rabbit eyes; experiment: Induction of reversible retinal detachment in rabbits using varying concentration of PEG 300 (Example 5); assay type: in vivo
Protocol: In this study, 8-pigmented rabbits were divided into 4 groups of 2 animals each. Group I consisted of 2 animals treated with 100% PEG 300. As performed in Example 1, these animals were first injected intravitreally (OD) with 50 μl of 75 I.U. of Hyaluronidase solution (Group I). Fourteen days after the first injection these animals received 50 μl of 100% sterile PEG 300 intravitreally. The OS eye was used as the untreated control as described in Example 1 (Group Ia). A second group of two animals, Group II, was first injected intravitreally (OD) with 50 μl of 75 I.U. of Hyaluronidase solution and then injected 14 days later with 50 μl of sterile 75% solution of PEG 300 intravitreally. The OS eyes of these animals were used as the untreated controls (Group IIa). […] were treated according to the same protocols as described for Groups I, Ia, II, and IIa with the exception that Group III received 50 μl of 50% sterile solution of PEG 300 intravitreally. Similarly, Groups IV and IVa were treated according to the same protocols as described above, however, Group IV received 50 μl of 25% sterile solution of PEG 300 intravitreally.
All retinal detachments and retinal re-attachments were documented using Fundus Photography and Ultrasonography (β-Scan). In addition, 3 rabbit eyes were enucleated and the eyes were prepared for light microscopy as well as for Electron Microscopy.

[4] = system: detached retinas of cats; experiment: Protection of surgically detached retina from degeneration in adult cats (Example 6); assay type: in vivo, adult cats (Felis domesticus); conditions: 100 μl of Table 5 formulation 6 hours after detachment, 3 days
Protocol: The study is performed on 15 adult cats (Felis domesticus) and modeled generally on the study of Mervin, et al., “Limiting Photoreceptor Death and Deconstruction During Experimental Retinal Detachment: The Value of Oxygen Supplementation,” Am. J. Ophthal. 128:155-164 (1999). Unlike the Mervin study however, the present experiment examines the effect of hyaluronidase administration to prevent photoreceptor death rather than the effect of supplemental oxygen administration.
Three groups of five adult domestic cats (Experimental Group I, Experimental Group II, and Control Group I) are anesthetized using 10 mg/kg of xylazine (Boehringer Ingelheim Vetmedica, Inc., St. Joseph, Mo.) and 50 mg/kg of ketamine (Sigma, St. Louis, Mo.). The surgical method of Anderson, et al., (Invest. Ophthalmol. Vis. Sci. 27:168-183 (1986)) is used to induce retinal detachment in two experimental groups of 5 cats each, however, the lens and vitreous of these cats are left in place during the surgical procedure.
During the procedure, a glass micropipette is introduced through a 20-gauge hole in the sclera at the region of the pars plana. A balanced salt solution (BSS) containing 0.25% sodium hyaluronate is then infused between the neural retina and retinal pigment epithelium. A single detachment is produced in the right eye of each of the 10 cats.
The experimental groups are allowed to recover for six hours. […]

[5] = 75 I.U. hyaluronidase, 14 days later varying concentrations of PEG 300
[6] = Groups I-IV OD: 75 I.U. hyaluronidase, 14 days later 50 μl sterile 100%, 75%, 50% or 25% PEG 300, fundus photos, β scans

Compound	treatment-related toxicities, eyes examined grossly and microscopically ([1]; Group 2, BSS+thimerosal 0.0075 mg, day 2)	treatment-related toxicities, eyes examined grossly and microscopically ([1]; Group 2, BSS+thimerosal 0.0075 mg, day 7)	treatment-related toxicities, eyes examined grossly and microscopically ([1]; Group 3, BSS+thimerosal 0.025 mg, day 2 and 7 post dose)	Electro Retinography Results [2]	Histological and Electron Microscopic Results [2]	Retinal Detachment at 48 hours Post 2nd Injection [2]	Retinal Reattachment at 3 weeks Post 2nd Injection [2]	safety by indirect ophthalmoscopy, fundus photography, light and electron microscopy and electroretinography [2]	time to induced retinal detachment after second intravitreal injection [3, 5] [h]	time to spontaneous retinal re-attachment after the PEG injection [3, 5] [weeks]	Retinal Detachment At 48 hours Post 2nd Injection [3, 6]	Retinal Reattachment At 3 weeks Post 2nd Injection [3, 6]	Histological and Electron Microscopic Results ([3]; Groups I-IV OD: 100%, 75%, 50% or 25% PEG 300, 3 enucleated eyes)	Electro Retinography Results ([3]; Groups I-IV OD: 100%, 75%, 50% or 25% PEG 300, after retinal detachment and spontaneous re-attachment 3 weeks later)	safety / toxicity of intravitreal injection ([3]; hyaluronidase followed by PEG 300 at 100%, 75%, 50% and 25% in saline vehicle)	thickness of the outer nuclear layer after retinal detachment surgery [4]
C[CH2][Hg][S]c1ccccc1C(=O)[O-].[Na+] [thimerosal]	free of toxicity	breakdown of the blood retinal barrier	severe treatment-related toxic effects													
Polyethylene Glycol 300 [PEG 300]				Normal	Normal	All	All	safe and without causing any toxicity	≤ 48	≤ 3	All	All	No Adverse	No Adverse	safe and without causing any toxicity	Thinning of the outer nuclear layer is observed
Polyethylene Glycol 400 [PEG 400]				Normal	Normal	All	All	safe and without causing any toxicity								
